In publication PMC12332667, “Role of Structural Modifications in Peptidomimetic Compounds as Potential Antimicrobial Agents against Staphylococcus aureus and Streptococcus pyogenes: Balancing Bioavailability, Safety, and Antimicrobial Activity” (ACS Omega, 2025):
Converted amounts (≈) assume the structure as drawn.

Tests used:
S. aureus ATCC 43300 = assay: MIC/MBC broth microdilution, S. aureus; format: cell-based, Staphylococcus aureus; details: S. aureus
S. pyogenes ATCC 19615 = assay: MIC/MBC broth microdilution, S. pyogenes; format: cell-based, Streptococcus pyogenes; details: S. pyogenes
Description: (§1) S. aureus (ATCC 29213),S. pyogenes (ATCC 19615),Streptococcus agalactiae (ATCC 27956),Escherichia coli (ATCC 25922),Proteus vulgaris (ATCC 6896),K. pneumoniae (ATCC 700603) andP. aeruginosa (ATCC 10145) reference strains, as well asStaphylococcus cohnii, Enterococcus faecalis, Staphylococcus schleiferi, Staphylococcus intermedius and Streptococcus mutans clinical isolates, were used to test the antibacterial activity of the peptidomimetics. Bacteria were aerobically cultured for 18 h at 37 °C in plates with sterilized brain heart infusion (BHI) broth (Sigma-Aldrich, USA) media mixed with bacteriological agar (Sigma-Aldrich, USA) using the streak plate method. After 18 h, BHI broth was inoculated to 0.5 on the McFarland scale and diluted to approximately 10^5 CFU/mL. To achieve a final stock concentration of 1024 μg/mL, the peptidomimetics were dissolved in sterile water, and 5–10% of absolute ethanol or dimethyl sulfoxide (DMSO) was added. The antibacterial activities were determined by using the standard broth microdilution method of the National Committee for Clinical Laboratory Standards. The process involved adding serially diluted peptidomimetics to consecutive wells of a 96-well microtiter plate (Brand, Germany) holding media with microorganisms. The inoculated plates treated with peptides were then placed in an incubator at 37 °C for 18 h. The MIC value was determined as the lowest concentration of peptidomimetic at which there was no obvious growth (equal or more than 90% of the untreated sample). […] The lowest concentration yielding growth in no more than 3 colonies, corresponding to at least a 99.9% kill rate, was taken as MBC. Each biological replicate included control wells with the addition of water, DMSO, and ethanol as respective solvent controls. All experiments were conducted with consistent adherence to growth and sterility controls and were performed at least in technical triplicate with three biological repeats.

S. cohnii c.i. = assay: MIC/MBC broth microdilution, S. cohnii; format: cell-based, Staphylococcus cohnii
Description: as §1

E. faecalis c.i. = assay: MIC/MBC broth microdilution, E. faecalis; format: cell-based, Enterococcus faecalis
Description: as §1

S. schleiferi c.i. = assay: MIC/MBC broth microdilution, S. schleiferi; format: cell-based, Staphylococcus schleiferi
Description: as §1

S. agalactiae ATCC 27956 = assay: MIC/MBC broth microdilution, S. agalactiae; format: cell-based, Streptococcus agalactiae; details: S. agalactiae
Description: as §1

S. intemrdius c.i. = assay: MIC/MBC broth microdilution, S. intermedius; format: cell-based, Staphylococcus intermedius
Description: as §1

S. mutans c.i. = assay: MIC/MBC broth microdilution, S. mutans; format: cell-based, Streptococcus mutans
Description: as §1

E. coli ATCC 25922 = assay: MIC/MBC broth microdilution, E. coli; format: cell-based, Escherichia coli
Description: as §1

P. vulgaris ATCC 6896 = assay: MIC/MBC broth microdilution, P. vulgaris; format: cell-based, Proteus vulgaris
Description: as §1

[1] = system: K. pneumoniae ATCC 700603; assay: MIC/MBC broth microdilution, K. pneumoniae; format: cell-based
Description: as §1

P. aeruginosa ATCC 10145 = assay: MIC/MBC broth microdilution, P. aeruginosa; format: cell-based
Description: as §1

[2] = system: immortalized human keratinocytes (HaCaT); assay: LDH cytotoxicity test, keratinocytes; format: cell-based; details: 48 h, 50, 100 and 150 μg/mL, vs 1% Triton X-100
Description: (§2) In our study, we used two distinct cell types: immortalized human HaCaT keratinocytes (DKFZ, Heidelberg, Germany) and a human dermal fibroblast cell line (46BR.1N). […] Cultures were maintained in a humidified atmosphere with 5% CO2 at 37 °C in 25 cm^2 culture flasks with the medium replenished every 2 days. The condition of the cells was monitored using optical microscopy.
(§3) Cell death in immortalized human keratinocytes (HaCaT) and fibroblasts (46BR.1N) was measured by quantifying the lactate dehydrogenase (LDH) activity using a commercial kit (Roche, Switzerland). Cells were seeded in 96-well plates at a density of 5000 cells per well in DMEM high glucose medium supplemented with 10% FBS. After 24 h of incubation, the medium was replaced with serum-free medium containing various concentrations of peptidomimetics (50, 100, and 150 μg/mL). After 48 h, supernatants were collected for LDH analysis. Plate readings were taken spectrophotometrically using a 450 nm wavelength. Cell death measurements were normalized to an untreated control (0%), with 1% Triton X-100 detergent used as a positive control to induce maximum LDH release, indicating maximal cytotoxicity. Statistical significance was determined with a Mann–Whitney U test with a statistical significance p ≤ 0.05. Analysis was performed with Statistica software (Krakow, Poland) and graphs were prepared in GraphPad Prism (Boston, USA).

fibroblasts (46BR.1N) = assay: LDH cytotoxicity test, fibroblasts; format: cell-based; details: 48 h, 50, 100 and 150 μg/mL, vs 1% Triton X-100
Description: as §2, §3

[3] = system: immortalized human HaCaT keratinocytes; assay: XTT cell proliferation assay, keratinocytes; format: cell-based; details: XTT
Description: (§4) In our study, we used two distinct cell types: immortalized human HaCaT keratinocytes (DKFZ, Heidelberg, Germany) and a human dermal fibroblast cell line (46BR.1N). […] Cultures were maintained in a humidified atmosphere with 5% CO2 at 37 °C in 25 cm^2 culture flasks with the medium replenished every 2 days. The condition of the cells was monitored using optical microscopy. […] After 24 h of incubation, the medium was replaced with serum-free HG-DMEM containing appropriate concentrations of peptidomimetics. All solutions used in the experiments were prepared with double-distilled water or with the addition of ethanol under sterile conditions to ensure compatibility with the conditions of the bacteriological assay. For 72 h of incubation, half of the medium was replaced with fresh medium after 48 h, and cells were stimulated with peptides for a second time. The XTT cell proliferation assay was then performed according to the manufacturer’s instructions (Roche, Switzerland). Cells were treated with the peptides for either 48 or 72 h, followed by the addition of XTT reagent, and the plates were then incubated at 37 °C in a 5% CO2 environment for 4 h. Plate readings were taken using a standard plate reader at a wavelength of 490 nm (OD = 490 nm). […] Statistical significance was determined with a Mann–Whitney U test with statistical significance p ≤ 0.05. Analysis was performed with Statistica software, and graphs were prepared in GraphPad Prism.

[4] = system: human dermal fibroblast cell line (46BR.1N); assay: XTT cell proliferation assay, fibroblasts; format: cell-based; details: XTT
Description: as §4

Question: For `CC(C)C[C@H](NC(=O)[C@H](CCCCNC(=N)N)NC(=O)OCc1ccccc1)C(=O)N[C@H](CNC(=O)/C=C/c1ccccc1)C(C)C` [Compound A-134], which MIC (S. aureus ATCC 43300; H2O) is on record?
Answer: 32 µg/mL (≈ 49.2 µM)

Question: What about the MIC (S. aureus ATCC 43300; water additive EtOH) of the same molecule?
Answer: 32 µg/mL (≈ 49.2 µM)

Question: And the MIC (S. pyogenes ATCC 19615; H2O)?
Answer: 32 µg/mL (≈ 49.2 µM)

Question: And the MBC (S. pyogenes ATCC 19615; water additive DMSO)?
Answer: 16 µg/mL (≈ 24.6 µM)

Question: And the MIC (S. pyogenes ATCC 19615; water additive DMSO)?
Answer: 32 µg/mL (≈ 49.2 µM)

Question: And the MBC (S. pyogenes ATCC 19615; water additive EtOH)?
Answer: 32 µg/mL (≈ 49.2 µM)

Question: And the MIC (S. pyogenes ATCC 19615; water additive EtOH)?
Answer: 16 µg/mL (≈ 24.6 µM)

Question: What about the MBC (S. cohnii c.i.; water additive DMSO) of the same molecule?
Answer: 32 µg/mL (≈ 49.2 µM)

Question: What about the MIC (S. cohnii c.i.; water additive DMSO) of the same molecule?
Answer: 32 µg/mL (≈ 49.2 µM)

Question: And the MBC (S. cohnii c.i.; water additive EtOH)?
Answer: 32 µg/mL (≈ 49.2 µM)

Question: What about the MIC (S. cohnii c.i.; water additive EtOH) of the same molecule?
Answer: 32 µg/mL (≈ 49.2 µM)

Question: And the MBC (E. faecalis c.i.; water additive DMSO)?
Answer: 512 µg/mL (≈ 788 µM)

Question: What about the MIC (E. faecalis c.i.; water additive DMSO) of the same molecule?
Answer: 256 µg/mL (≈ 394 µM)

Question: What about the MBC (E. faecalis c.i.; water additive EtOH) of the same molecule?
Answer: 512 µg/mL (≈ 788 µM)

Question: What about the MIC (E. faecalis c.i.; water additive EtOH) of the same molecule?
Answer: 512 µg/mL (≈ 788 µM)

Question: What about the MIC (S. schleiferi c.i.; water additive DMSO) of the same molecule?
Answer: > 512 µg/mL

Question: And the MIC (S. schleiferi c.i.; water additive EtOH)?
Answer: > 512 µg/mL

Question: What about the MIC (S. agalactiae ATCC 27956; water additive DMSO) of the same molecule?
Answer: 32 µg/mL (≈ 49.2 µM)

Question: What about the MIC (S. agalactiae ATCC 27956; water additive EtOH) of the same molecule?
Answer: 32 µg/mL (≈ 49.2 µM)

Question: And the MBC (S. intemrdius c.i.; water additive DMSO)?
Answer: 32 µg/mL (≈ 49.2 µM)

Question: And the MIC (S. intemrdius c.i.; water additive DMSO)?
Answer: 32 µg/mL (≈ 49.2 µM)

Question: What about the MBC (S. intemrdius c.i.; water additive EtOH) of the same molecule?
Answer: 16 µg/mL (≈ 24.6 µM)

Question: And the MIC (S. intemrdius c.i.; water additive EtOH)?
Answer: 16 µg/mL (≈ 24.6 µM)

Question: And the MBC (S. mutans c.i.; water additive DMSO)?
Answer: > 512 µg/mL

Question: And the MIC (S. mutans c.i.; water additive DMSO)?
Answer: 512 µg/mL (≈ 788 µM)

Question: And the MIC (S. mutans c.i.; water additive EtOH)?
Answer: > 512 µg/mL

Question: And the MIC (E. coli ATCC 25922; water additive DMSO)?
Answer: > 512 µg/mL

Question: What about the MIC (E. coli ATCC 25922; water additive EtOH) of the same molecule?
Answer: > 512 µg/mL

Question: And the MIC (P. vulgaris ATCC 6896; water additive DMSO)?
Answer: > 512 µg/mL

Question: And the MIC (P. vulgaris ATCC 6896; water additive EtOH)?
Answer: > 512 µg/mL

Question: And the MIC ([1]; water additive DMSO)?
Answer: > 512 µg/mL

Question: What about the MIC ([1]; water additive EtOH) of the same molecule?
Answer: > 512 µg/mL

Question: What about the MIC (P. aeruginosa ATCC 10145; water additive DMSO) of the same molecule?
Answer: > 512 µg/mL

Question: What about the MIC (P. aeruginosa ATCC 10145; water additive EtOH) of the same molecule?
Answer: > 512 µg/mL

Question: And the “cytotoxicity (LDH)” value [2]?
Answer: ≤ 50%

Question: What about the “cytotoxicity (LDH)” value (fibroblasts (46BR.1N)) of the same molecule?
Answer: ≤ 50%

Question: And the “proliferation relative to control at 50 μg/mL” value ([3]; 50 μg/mL)?
Answer: approximately 75%

Question: What about the “effect on proliferation, in words” value ([3]; 48 and 72 h, 0.01–150 μg/mL) of the same molecule?
Answer: pro-proliferating effect at lower concentrations followed by an antiproliferative effect at higher concentrations

Question: What about the “proliferation relative to control at 50 μg/mL” value ([4]; 50 μg/mL) of the same molecule?
Answer: approximately 75%

Question: And the “effect on proliferation, in words” value ([4]; 48 and 72 h, 0.01–150 μg/mL)?
Answer: pro-proliferating effect at lower concentrations followed by an antiproliferative effect at higher concentrations
